Data taken from patent US20220289679A1, “HETEROCYCLIC COMPOUND” (Takeda Pharmaceutical Company Limited, priority 2019, published 2022).

What follows are compounds tested against T1, human GCS (glucosylceramide synthase) (Homo sapiens, UniProt Q16739) (assay: Glucosylceramide Synthase (GCS) Assay). Conditions: test compound 10 μM; microsome fraction of Expi293F cells expressing human GCS; 1.7 μM UDP-glucose, 3 μM C8 ceramide; room temperature 60 min; C8 glucosylceramide by Rapidfire MS/MS; read-out: GCS enzyme inhibitory rate at 10 μM (%).
T1 construct: made in house; host or cells: Expi293F cells (transient expression; microsome fraction)
T1 sequence (Q16739 1-394): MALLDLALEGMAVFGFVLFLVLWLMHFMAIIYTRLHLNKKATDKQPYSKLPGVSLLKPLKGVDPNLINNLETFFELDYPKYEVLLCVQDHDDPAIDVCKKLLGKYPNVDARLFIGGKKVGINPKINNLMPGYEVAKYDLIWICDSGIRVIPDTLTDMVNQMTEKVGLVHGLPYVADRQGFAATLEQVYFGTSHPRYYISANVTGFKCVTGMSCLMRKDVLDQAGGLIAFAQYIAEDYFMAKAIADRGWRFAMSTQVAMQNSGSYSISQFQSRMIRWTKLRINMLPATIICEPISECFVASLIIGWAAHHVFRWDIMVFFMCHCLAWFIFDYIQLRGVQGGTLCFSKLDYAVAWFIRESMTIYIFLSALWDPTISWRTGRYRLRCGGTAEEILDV
Type: biochemical
Summary of the method: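 Enzyme source was a microsome fraction from Expi293F cells transiently expressing human GCS. Reaction ran 60 min at room temperature in 20 mM Tris pH 7.5 with 1.7 μM UDP-glucose (Km) and 3 μM liposomal C8 ceramide, compound at 10 μM final. C8 glucosylceramide quantified by RapidFire MS/MS; inhibition scaled between enzyme-free and DMSO controls.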

Compound | inhibition at 10 µM [%]
COc1cc(F)ccc1-n1cccc(C(=O)Nc2ccc(C3CC3)nc2)c1=O [Example 7, N-(6-cyclopropylpyridin-3-yl)-1-(4-fluoro-2-methoxyphenyl)-2-oxo-1,2-dihydropyridine-3-carboxamide] | 57
CC(C)(O)c1ccc(NC(=O)c2cccn(-c3ccccc3OCC(F)(F)F)c2=O)cc1F [Example 82, N-[3-fluoro-4-(2-hydroxypropan-2-yl)phenyl]-2-oxo-1-[2-(2,2,2-trifluoroethoxy)phenyl]-1,2-dihydropyridine-3-carboxamide] | 99
O=C(Nc1ccc(OCC(F)(F)F)nc1)c1cccn(-c2ccc(F)cc2OCC(F)(F)F)c1=O [Example 26, 1-[4-fluoro-2-(2,2,2-trifluoroethoxy)phenyl]-2-oxo-N-[6-(2,2,2-trifluoroethoxy)pyridin-3-yl]-1,2-dihydropyridine-3-carboxamide] | 100
O=C(Nc1ccc(OCC(F)(F)F)nc1)c1cccn(-c2ncncc2OCC(F)(F)F)c1=O [Example 110, 2-oxo-N-[6-(2,2,2-trifluoroethoxy)pyridin-3-yl]-1-[5-(2,2,2-trifluoroethoxy)pyrimidin-4-yl]-1,2-dihydropyridine-3-carboxamide] | 99
O=C(Nc1ccn(CC(F)(F)F)n1)c1cccn(-c2ccccc2OCC(F)(F)F)c1=O [Example 22, 2-oxo-1-[2-(2,2,2-trifluoroethoxy)phenyl]-N-[1-(2,2,2-trifluoroethyl)-1H-pyrazol-3-yl]-1,2-dihydropyridine-3-carboxamide] | 77
CC(C)(O)c1ccc(NC(=O)c2cccn(-c3ccc(F)cc3OCC(F)(F)F)c2=O)cn1 [Example 85, 1-[4-fluoro-2-(2,2,2-trifluoroethoxy)phenyl]-N-[6-(2-hydroxypropan-2-yl)pyridin-3-yl]-2-oxo-1,2-dihydropyridine-3-carboxamide] | 94
O=C(Nc1ccc(OCC(F)(F)F)nc1)c1cncn(-c2ccc(F)cc2OCC(F)(F)F)c1=O [Example 93, 1-[4-fluoro-2-(2,2,2-trifluoroethoxy)phenyl]-6-oxo-N-[6-(2,2,2-trifluoroethoxy)pyridin-3-yl]-1,6-dihydropyrimidine-5-carboxamide] | 99
O=C(Nc1ccc(C2(O)CCC2)cc1)c1cccn(-c2ccccc2OCC(F)(F)F)c1=O [Example 96, N-[4-(1-hydroxycyclobutyl)phenyl]-2-oxo-1-[2-(2,2,2-trifluoroethoxy)phenyl]-1,2-dihydropyridine-3-carboxamide] | 100
COc1ccccc1-n1cccc(C(=O)Nc2ccc(Oc3ccccc3)cc2)c1=O [Example 2, 1-(2-methoxyphenyl)-2-oxo-N-(4-phenoxyphenyl)-1,2-dihydropyridine-3-carboxamide] | 95
O=C(Nc1ccc(C(O)(C(F)F)C(F)F)nc1)c1cccn(-c2cccnc2OCC(F)(F)F)c1=O [Example 123, 2-oxo-N-[6-(1,1,3,3-tetrafluoro-2-hydroxypropan-2-yl)pyridin-3-yl]-2′-(2,2,2-trifluoroethoxy)-2H-[1,3′-bipyridine]-3-carboxamide] | 99
O=C(Nc1ccc(C(O)(C(F)(F)F)C(F)(F)F)cc1)c1cccn(-c2ccc(F)cc2OCC(F)(F)F)c1=O [Example 103, 1-[4-fluoro-2-(2,2,2-trifluoroethoxy)phenyl]-N-[4-(1,1,1,3,3,3-hexafluoro-2-hydroxypropan-2-yl)phenyl]-2-oxo-1,2-dihydropyridine-3-carboxamide] | 100
Cc1ccc(C(=O)Nc2ccc(C(C)(C)O)cc2)c(=O)n1-c1ccc(F)cc1OCC(F)(F)F [Example 100, 1-[4-fluoro-2-(2,2,2-trifluoroethoxy)phenyl]-N-[4-(2-hydroxypropan-2-yl)phenyl]-6-methyl-2-oxo-1,2-dihydropyridine-3-carboxamide] | 70
CC(C)(O)c1ccc(NC(=O)c2ccnn(-c3ccccc3OCC(F)(F)F)c2=O)cc1 [Example 127, N-[4-(2-hydroxypropan-2-yl)phenyl]-3-oxo-2-[2-(2,2,2-trifluoroethoxy)phenyl]-2,3-dihydropyridazine-4-carboxamide] | 100
N#CCc1ccc(NC(=O)c2cccn(-c3ccc(F)cc3OCC(F)(F)F)c2=O)cn1 [Example 80, N-[6-(cyanomethyl)pyridin-3-yl]-1-[4-fluoro-2-(2,2,2-trifluoroethoxy)phenyl]-2-oxo-1,2-dihydropyridine-3-carboxamide] | 71
O=C(Nc1ccc(COCC(F)(F)F)nc1)c1cccn(-c2ccc(F)cc2OCC(F)(F)F)c1=O [Example 73, 1-[4-fluoro-2-(2,2,2-trifluoroethoxy)phenyl]-2-oxo-N-{6-[(2,2,2-trifluoroethoxy)methyl]pyridin-3-yl}-1,2-dihydropyridine-3-carboxamide] | 99
Cc1cc(C(=O)Nc2ccc(C(C)(C)O)cc2)c(=O)n(-c2ccccc2OCC(F)(F)F)n1 [Example 131, N-[4-(2-hydroxypropan-2-yl)phenyl]-6-methyl-3-oxo-2-[2-(2,2,2-trifluoroethoxy)phenyl]-2,3-dihydropyridazine-4-carboxamide] | 100
CC(C)(O)c1ccc(NC(=O)c2cccn(-c3ccccc3OCC(F)(F)F)c2=O)cn1 [Example 84, N-[6-(2-hydroxypropan-2-yl)pyridin-3-yl]-2-oxo-1-[2-(2,2,2-trifluoroethoxy)phenyl]-1,2-dihydropyridine-3-carboxamide] | 98
O=C(Nc1ccc(CN2CCOCC2)cc1)c1cccn(-c2ccc(F)cc2OCC(F)(F)F)c1=O [Example 35, 1-[4-fluoro-2-(2,2,2-trifluoroethoxy)phenyl]-N-{4-[(morpholin-4-yl)methyl]phenyl}-2-oxo-1,2-dihydropyridine-3-carboxamide] | 85

Further lines, results first:

inhibition at 10 µM [%] | Compound
91 | CC(C)(O)Cn1cc(C(=O)Nc2ccc(C(C)(C)O)cc2)c(=O)c(-c2ccccc2OCC(F)F)n1 [Example 174, 6-[2-(2,2-difluoroethoxy)phenyl]-2-(2-hydroxy-2-methylpropyl)-N-[4-(2-hydroxypropan-2-yl)phenyl]-5-oxo-2,5-dihydropyridazine-4-carboxamide]
100 | CC(C)(C#N)c1ccc(NC(=O)c2cn(C3CC3)nc(-c3ccccc3OCC(F)F)c2=O)cc1 [Example 192, N-[4-(2-cyanopropan-2-yl)phenyl]-2-cyclopropyl-6-[2-(2,2-difluoroethoxy)phenyl]-5-oxo-2,5-dihydropyridazine-4-carboxamide]
65 | CCOC(=O)c1ccc(NC(=O)c2cc(C)nn(-c3ccccc3OCC(F)F)c2=O)s1 [Example 170, ethyl 5-({2-[2-(2,2-difluoroethoxy)phenyl]-6-methyl-3-oxo-2,3-dihydropyridazine-4-carbonyl}amino)thiophene-2-carboxylate]
100 | CC(C)(O)c1ccc(NC(=O)c2ccnn(-c3ccccc3OCC(F)(F)F)c2=O)c(F)c1 [Example 148, N-[2-fluoro-4-(2-hydroxypropan-2-yl)phenyl]-3-oxo-2-[2-(2,2,2-trifluoroethoxy)phenyl]-2,3-dihydropyridazine-4-carboxamide]
100 | CC(C)(C#N)c1ccc(NC(=O)c2cn(C3COC3)nc(-c3ccccc3OCC(F)F)c2=O)cc1 [Example 191, N-[4-(2-cyanopropan-2-yl)phenyl]-6-[2-(2,2-difluoroethoxy)phenyl]-2-(oxetan-3-yl)-5-oxo-2,5-dihydropyridazine-4-carboxamide]
100 | O=C(Nc1ccc(C(O)(C(F)F)C(F)F)cc1)c1cn(C2COC2)nc(-c2ccccc2OCC(F)F)c1=O [Example 184, 6-[2-(2,2-difluoroethoxy)phenyl]-2-(oxetan-3-yl)-5-oxo-N-[4-(1,1,3,3-tetrafluoro-2-hydroxypropan-2-yl)phenyl]-2,5-dihydropyridazine-4-carboxamide]
100 | O=C(Nc1ccc(C(O)(C(F)F)C(F)F)nc1)c1cn(C2CCOC2)nc(-c2ccccc2OCC(F)F)c1=O (racemic) [Example 195, rac-6-[2-(2,2-difluoroethoxy)phenyl]-5-oxo-2-(oxolan-3-yl)-N-[6-(1,1,3,3-tetrafluoro-2-hydroxypropan-2-yl)pyridin-3-yl]-2,5-dihydropyridazine-4-carboxamide]
100 | Cn1cc(C(=O)Nc2ccc(C(O)(C(F)F)C(F)F)cc2)c(=O)c(-c2ccccc2OCC(F)F)n1 [Example 159, 6-[2-(2,2-difluoroethoxy)phenyl]-2-methyl-5-oxo-N-[4-(1,1,3,3-tetrafluoro-2-hydroxypropan-2-yl)phenyl]-2,5-dihydropyridazine-4-carboxamide]
100 | Cc1cc(C(=O)Nc2ccc(C(C)(C)O)cc2Cl)c(=O)n(-c2ccccc2OCC(F)F)n1 [Example 149, N-[2-chloro-4-(2-hydroxypropan-2-yl)phenyl]-2-[2-(2,2-difluoroethoxy)phenyl]-6-methyl-3-oxo-2,3-dihydropyridazine-4-carboxamide]
99 | C=C(C)c1ccc(NC(=O)c2cc(C(C)(C)O)nn(-c3ccccc3OCC(F)(F)F)c2=O)cc1 [Example 203, 6-(2-hydroxypropan-2-yl)-3-oxo-N-[4-(prop-1-en-2-yl)phenyl]-2-[2-(2,2,2-trifluoroethoxy)phenyl]-2,3-dihydropyridazine-4-carboxamide]
